Assay results published in patent US12570675B2, “Boronic acid compounds” (LG CHEM, LTD., priority 2020, dated 2026).

Target: Proteasome chymotrypsin-like activity (S26 protein from RPMI8226 cells) (Homo sapiens, UniProt P28074)
Type: biochemical
Settings: S26 protein from RPMI8226 cell extract 2 ug/well, substrate 20 uM, 37° C., 90 minutes; read-out: Proteasome chymotrypsin-like activity inhibition IC50
In short: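 S26 proteasome fraction from homogenized RPMI8226 myeloma cells in 20 mM Tris-HCl pH 8.0 (2 ug extract/well) incubated 90 min at 37 °C with compound serially diluted from 10 uM (0.5% DMSO).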

Proteasome chymotrypsin-like activity (S26 protein from RPMI8226 cells), sequence (P28074 60-263 limits assumed): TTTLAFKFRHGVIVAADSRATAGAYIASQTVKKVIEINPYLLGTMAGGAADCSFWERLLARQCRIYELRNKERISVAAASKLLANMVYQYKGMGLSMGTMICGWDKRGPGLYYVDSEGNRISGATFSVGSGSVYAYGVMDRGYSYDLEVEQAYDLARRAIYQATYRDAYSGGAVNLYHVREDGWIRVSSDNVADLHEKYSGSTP

CC(C)C[C@H](NC(=O)C1(Cc2cccc(Cl)c2)CC(CNC(=O)c2cccn3ccnc23)=NO1)B(O)O (stereo partly drawn) [Example 177, ((1R)-1-(5-(3-chlorobenzyl)-3-((imidazo[1,2-a]pyridin-8-carboxamido)methyl)-4,5-dihydroisoxazol-5-carboxamido)-3-methylbutyl)boronic acid] and CC(C)C[C@H](NC(=O)C1(Cc2ccccc2)CC(CNC(=O)c2ccnc3c2ccn3C)=NO1)B(O)O (stereo partly drawn) [Example 210, ((1R)-1-(5-benzyl-3-((1-methyl-1H-pyrrolo[2,3-b]pyridin-4-carboxamido)methyl)-4,5-dihydroisoxazol-5-carboxamido)-3-methylbutyl)boronic acid] cannot be ordered by IC50: under 10 nM for the first, under 10 nM for the second.

CC(C)C[C@H](NC(=O)C1(C2(c3ccccc3)CC2)CC(CNC(=O)c2nccc3ccccc23)=NO1)B(O)O (stereo partly drawn) [Example 180, ((1R)-1-(3-((isoquinolin-1-carboxamido)methyl)-5-(1-phenylcyclopropyl)-4,5-dihydroisoxazol-5-carboxamido)-3-methylbutyl)boronic acid] and CC(C)C[C@H](NC(=O)C1(C2(c3ccccc3)CC2)CC(CNC(=O)c2cccn3ccnc23)=NO1)B(O)O (stereo partly drawn) [Example 181, ((1R)-1-(3-((imidazo[1,2-a]pyridin-8-carboxamido)methyl)-5-(1-phenylcyclopropyl)-4,5-dihydroisoxazol-5-carboxamido)-3-methylbutyl)boronic acid] cannot be ordered by IC50: under 50 nM for the first, under 50 nM for the second.

CC(C)C[C@H](NC(=O)C1(Cc2ccccc2)CC(CNC(=O)c2cc(C(C)C)on2)=NO1)B(O)O (stereo partly drawn) [Example 182, ((1R)-1-(5-benzyl-3-((5-isopropylisoxazol-3-carboxamido)methyl)-4,5-dihydroisoxazol-5-carboxamido)-3-methylbutyl)boronic acid] and Cc1nn(C(C)C)cc1C(=O)NCC1=NOC(Cc2ccccc2)(C(=O)N[C@@H](CC(C)C)B(O)O)C1 (stereo partly drawn) [Example 206, ((1R)-1-(5-benzyl-3-((1-isopropyl-3-methyl-1H-pyrazol-4-carboxamido)methyl)-4,5-dihydroisoxazol-5-carboxamido)-3-methylbutyl)boronic acid] cannot be ordered by IC50: under 10 nM for the first, under 10 nM for the second.

CC(C)C[C@H](NC(=O)C1(Cc2cc(F)cc(F)c2)CC(CNC(=O)c2nccc3ccccc23)=NO1)B(O)O (stereo partly drawn) [Example 183, ((1R)-1-(5-(3,5-difluorobenzyl)-3-((isoquinolin-1-carboxamido)methyl)-4,5-dihydroisoxazol-5-carboxamido)-3-methylbutyl)boronic acid] and CC(C)C[C@H](NC(=O)C1(Cc2cccc(F)c2F)CC(CNC(=O)c2nccc3ccccc23)=NO1)B(O)O (stereo partly drawn) [Example 203, ((1R)-1-(5-(2,3-difluorobenzyl)-3-((isoquinolin-1-carboxamido)methyl)-4,5-dihydroisoxazol-5-carboxamido)-3-methylbutyl)boronic acid] cannot be ordered by IC50: under 10 nM for the first, under 10 nM for the second.

CC(C)C[C@H](NC(=O)C1(Cc2ccccc2)CC(CNC(=O)c2c(Cl)cnn2C)=NO1)B(O)O (stereo partly drawn) [Example 184, ((1R)-1-(5-benzyl-3-((4-chloro-1-methyl-1H-pyrazol-5-carboxamido)methyl)-4,5-dihydroisoxazol-5-carboxamido)-3-methylbutyl)boronic acid] and COCCn1nccc1C(=O)NCC1=NOC(Cc2ccccc2)(C(=O)N[C@@H](CC(C)C)B(O)O)C1 (stereo partly drawn) [Example 191, ((1R)-1-(5-benzyl-3-((1-(2-methoxyethyl)-1H-pyrazol-5-carboxamido)methyl)-4,5-dihydroisoxazol-5-carboxamido)-3-methylbutyl)boronic acid] cannot be ordered by IC50: under 10 nM for the first, under 25 nM for the second.

COC[C@@H](NC(=O)c1nccc2ccccc12)C1=NOC(Cc2ccccc2)(C(=O)N[C@@H](CC(C)C)B(O)O)C1 (stereo partly drawn) [Example 185, ((1R)-1-(5-benzyl-3-((S)-1-(isoquinolin-1-carboxamido)-2-methoxyethyl)-4,5-dihydroisoxazol-5-carboxamido)-3-methylbutyl)boronic acid] and COC[C@H](NC(=O)c1cccc(C)n1)C1=NOC(Cc2ccccc2)(C(=O)N[C@@H](CC(C)C)B(O)O)C1 (stereo partly drawn) [Example 195, ((1R)-1-(5-benzyl-3-((R)-2-methoxy-1-(6-methylpicolinamido)ethyl)-4,5-dihydroisoxazol-5-carboxamido)-3-methylbutyl)boronic acid] cannot be ordered by IC50: under 10 nM for the first, under 50 nM for the second.

COCC1(C(=O)N[C@@H](CC(C)C)B(O)O)CC(CNC(=O)c2nccc3ccccc23)=NO1 (stereo partly drawn) [Example 192, ((1R)-1-(3-((isoquinolin-1-carboxamido)methyl)-5-(methoxymethyl)-4,5-dihydroisoxazol-5-carboxamido)-3-methylbutyl)boronic acid] and CCOCC1(C(=O)N[C@@H](CC(C)C)B(O)O)CC(CNC(=O)c2nccc3ccccc23)=NO1 (stereo partly drawn) [Example 193, ((1R)-1-(5-(ethoxymethyl)-3-((isoquinolin-1-carboxamido)methyl)-4,5-dihydroisoxazol-5-carboxamido)-3-methylbutyl)boronic acid] cannot be ordered by IC50: under 10 nM for the first, under 10 nM for the second.

Cc1cccc(C(=O)N[C@@H](CC(C)C)C2=NOC(Cc3ccccc3)(C(=O)N[C@@H](CC(C)C)B(O)O)C2)n1 (stereo partly drawn) [Example 194, ((1R)-1-(5-benzyl-3-((S)-3-methyl-1-(6-methylpicolinamido)butyl)-4,5-dihydroisoxazol-5-carboxamido)-3-methylbutyl)boronic acid] and CC(C)C[C@H](NC(=O)C1(Cc2ccccc2)CC(CNC(=O)c2cn(C)c3ccccc23)=NO1)B(O)O (stereo partly drawn) [Example 208, ((1R)-1-(5-benzyl-3-((1-methyl-1H-indol-3-carboxamido)methyl)-4,5-dihydroisoxazol-5-carboxamido)-3-methylbutyl)boronic acid] cannot be ordered by IC50: under 250 nM for the first, under 10 nM for the second.

CC(C)C[C@H](NC(=O)C1(Cc2ccccc2)CC(CNC(=O)c2ccnn2C2CCOCC2)=NO1)B(O)O (stereo partly drawn) [Example 197, ((1R)-1-(5-benzyl-3-((1-(tetrahydro-2H-pyran-4-yl)-1H-pyrazol-5-carboxamido)methyl)-4,5-dihydroisoxazol-5-carboxamido)-3-methylbutyl)boronic acid] and Cc1cc(C(=O)NCC2=NOC(Cc3ccccc3)(C(=O)N[C@@H](CC(C)C)B(O)O)C2)n(-c2ccccn2)n1 (stereo partly drawn) [Example 213, ((1R)-1-(5-benzyl-3-((3-methyl-1-(pyridin-2-yl)-1H-pyrazol-5-carboxamido)methyl)-4,5-dihydroisoxazol-5-carboxamido)-3-methylbutyl)boronic acid] cannot be ordered by IC50: under 10 nM for the first, under 10 nM for the second.

CC(C)C[C@H](NC(=O)C12CCCC1C(CNC(=O)c1nccc3ccccc13)=NO2)B(O)O (stereo partly drawn) [Example 198, ((1R)-1-(3-((isoquinolin-1-carboxamido)methyl)-3a,5,6,6a-tetrahydro-4H-cyclopenta[d]isoxazol-6a-carboxamido)-3-methylbutyl)boronic acid] and CC(C)C[C@H](NC(=O)C12CCCC1C(CNC(=O)c1cccn3ccnc13)=NO2)B(O)O (stereo partly drawn) [Example 199, ((1R)-1-(3-((imidazo[1,2-a]pyridin-8-carboxamido)methyl)-3a,5,6,6a-tetrahydro-4H-cyclopenta[d]isoxazol-6a-carboxamido)-3-methylbutyl)boronic acid] cannot be ordered by IC50: under 100 nM for the first, under 1000 nM for the second.

CC(C)C[C@H](NC(=O)C1(COC2CCCCC2)CC(CNC(=O)c2nccc3ccccc23)=NO1)B(O)O (stereo partly drawn) [Example 214, ((1R)-1-(5-((cyclohexyloxy)methyl)-3-((isoquinolin-1-carboxamido)methyl)-4,5-dihydroisoxazol-5-carboxamido)-3-methylbutyl)boronic acid] gave an IC50 of under 10 nM.
